In patent US9084424B2, “N-benzyl heterocyclic carboxamides” (BAYER INTELLECTUAL PROPERTY GMBH, priority 2010, dated 2015) one finds logP and Efficacy data, which are given here for 41 compounds.

Series [1] can be described thus: log P by HPLC on reversed-phase column (EEC Directive 79/831 Annex V.A8). It counts as physicochemical. The note with it: 0.1% aqueous formic acid and acetonitrile, linear gradient 10% to 90% acetonitrile. As to the method: In table 1, the log P values were determined in accordance with EEC Directive 79/831 Annex V.A8 by HPLC (High Performance Liquid Chromatography) on a reversed-phase column (C 18), using the method described below: Temperature: 40° C.; Mobile phases: 0.1% aqueous formic acid and acetonitrile; linear gradient from 10% acetonitrile to 90% acetonitrile. Calibration was carried out using unbranched alkan-2-ones (comprising 3 to 16 carbon atoms) with known log P values (determination of the log P values by the retention times using linear interpolation between two successive alkanones). lambda-max-values were determined using UV-spectra from 200 nm to 400 nm and the peak values of the chromatographic signals.

A further series deals with Alternaria solani. The series can be described thus: In vivo preventive test on Alternaria solani (tomato). The note with it: preventive spray, 500 ppm of active ingredient, evaluated 7 days after inoculation. As to the method:
In Vivo Preventive Test on Alternaria Solani (Tomato)
Solvent: 49 parts by weight of N,N-dimethylformamide
Emulsifier: 1 part by weight of alkylarylpolyglycolether
(§1) To produce a suitable preparation of active compound, 1 part by weight of active compound is mixed with the stated amounts of solvent and emulsifier, and the concentrate is diluted with water to the desired concentration.
To test for preventive activity, young plants are sprayed with the preparation of active compound at the stated rate of application. One day after this treatment, the plants are inoculated with an aqueous spore suspension of Alternaria solani. The plants remain for one day in an incubation cabinet at approximately 22° C. and a relative atmospheric humidity of 100%. Then the plants are placed in an incubation cabinet at approximately 20° C. and a relative atmospheric humidity of 96%.
The test is evaluated 7 days after the inoculation. 0% means an efficacy which corresponds to that of the untreated control while an efficacy of 100% means that no disease is observed.

The test system of another series is Pyrenophora teres. Description: In vivo preventive test on Pyrenophora teres (barley). The note with it: preventive spray, 500 ppm of active ingredient, evaluated 7-9 days after inoculation. Here is the method:
In Vivo Preventive Test on Pyrenophora teres (Barley)
Solvent: 49 parts by weight of N,N-dimethylacetamid
Emulsifier: 1 part by weight of alkylaryl polyglycol ether
as §1
To test for preventive activity, young plants are sprayed with the preparation of active compound at the stated rate of application. One day after this treatment, the plants are inoculated with an aqueous spore suspension of Pyrenophora teres. The plants remain for 48 hours in an incubation cabinet at 22° C. and a relative atmospheric humidity of 100%. Then the plants are placed in a greenhouse at a temperature of approximately 20° C. and a relative atmospheric humidity of approximately 80%.
The test is evaluated 7-9 days after the inoculation. 0% means an efficacy which corresponds to that of the untreated control while an efficacy of 100% means that no disease is observed.

[2] abbreviates: HPLC, reversed-phase C 18, 40° C.
[3] abbreviates: HPLC on reversed-phase column (C 18), 40° C.

The term logP denotes a log measure of how a compound divides between an organic and an aqueous phase. A high value points to a more lipophilic compound. For `CC(NC(=O)c1c(C(F)F)nn(C)c1Cl)c1ccccc1` (racemic) [Example 1], the logP in series [1] (setting [2]) is 2.49. Besides, the Efficacy in the series with Alternaria solani and with Pyrenophora teres was 95% each time.

For `CC(NC(=O)c1c(C(F)F)nn(C)c1F)c1ccccc1` (racemic) [Example 2], the logP in series [1] (setting [2]) was 2.33. Besides, the figures for the Efficacy in the series with Alternaria solani and in the series with Pyrenophora teres were 93% and 94%, respectively.

Take `Cn1nc(C(F)F)c(C(=O)NC(c2ccccc2Cl)C(F)(F)F)c1F` (racemic) [Example 23]: the lipophilicity (logP) in series [1] (setting [2]) came out at 3.21. Also, the Efficacy in the series on Alternaria solani amounted to 89%.

`CC(c1ccccc1Cl)N(C)C(=O)c1c(C(F)F)nn(C)c1Cl` (racemic) [Example 27] showed a logP in series [1] (setting [2]) of 2.84. In addition, the Efficacy in the series with Alternaria solani is 80%; in the series on Pyrenophora teres, 100%.

The compound `CC(c1ccc(Oc2ccccc2)cc1)N(C)C(=O)c1c(C(F)F)nn(C)c1Cl` (racemic) [Example 153] had a logP in series [1] (setting [3]) of 3.76. Further, the figures for the Efficacy in the series with Alternaria solani and in the series on Pyrenophora teres were 90% and 80%, respectively.

Regarding `CC(NC(=O)c1c(C(F)F)nn(C)c1Cl)c1ccc(OCc2ccccc2)cc1` (racemic) [Example 159], in series [1] (setting [3]), the logP is on record as 3.58. This compound registered an Efficacy in the series with Pyrenophora teres of 95%.

As to `CC(NC(=O)c1c(C(F)F)nn(C)c1Cl)c1ccc(-c2ccccc2)cc1` (racemic) [Example 167], the logP in series [1] (setting [3]) turned out to be 3.62. For the same compound, the values for the Efficacy in the series with Alternaria solani and in the series with Pyrenophora teres were 95% and 90%, respectively.

In series [1] (setting [2]), `Cc1cccc(C)c1CN(C)C(=O)c1c(C(F)F)nn(C)c1Cl` [Example 5] registered a logP of 3.02. In the series with Pyrenophora teres, this compound registered an Efficacy of 89%.

Take `Cc1cccc(C)c1CN(C)C(=O)c1c(C(F)F)nn(C)c1F` [Example 6]: in series [1] (setting [2]), the logP was 2.84. In addition, the Efficacy in the series on Pyrenophora teres came to 78%.

In series [1] (setting [2]), `Cn1nc(C(F)F)c(C(=O)NCc2ccc(Cl)cc2Cl)c1F` [Example 37] yielded a logP of 4.19. Moreover, the Efficacy in the series with Alternaria solani turned out to be 94%.

In series [1] (setting [2]), `Cn1nc(C(F)F)c(C(=O)NC2(c3ccc(Cl)cc3Cl)CC2)c1Cl` [Example 41] displayed a logP of 3.89. Moreover, in the series with Alternaria solani, the Efficacy worked out at 80%.

As to `CN(Cc1ccc(Cl)cc1Cl)C(=O)c1c(C(F)F)nn(C)c1F` [Example 43], the logP in series [1] (setting [2]) came out at 3.19. In the series with Pyrenophora teres, this compound gave an Efficacy of 100%.

In series [1] (setting [2]), `Cn1nc(C(F)F)c(C(=O)NCc2cc(Cl)ccc2Cl)c1F` [Example 54] had a logP of 4.19. Also, the Efficacy in the series with Alternaria solani amounted to 89%.

As to `CN(Cc1c(Cl)cccc1Cl)C(=O)c1c(C(F)F)nn(C)c1Cl` [Example 61], the logP in series [1] (setting [2]) was 3.02. Besides, in the series on Pyrenophora teres, the Efficacy is recorded as 100%.

In turn, `CN(Cc1c(Cl)cccc1Cl)C(=O)c1c(C(F)F)nn(C)c1F` [Example 62] came in with a logP in series [1] (setting [2]) of 2.82. The Efficacy in the series on Pyrenophora teres was found to be 100%.

In the case of `CC(c1c(Cl)cccc1Cl)N(C)C(=O)c1c(C(F)F)nn(C)c1F` (stereo not drawn) [Example 64], in series [1] (setting [2]), the logP is 3.13. Moreover, in the series on Pyrenophora teres, the Efficacy was determined as 95%.

On to `CC(C)c1ccccc1CN(CC#N)C(=O)c1c(C(F)F)nn(C)c1F` [Example 67], for which the logP in series [1] (setting [2]) is recorded as 2.94. In the series with Pyrenophora teres, this compound returned an Efficacy of 90%.

In the case of `CC(C)c1ccc(Cl)cc1CN(CC(F)F)C(=O)c1c(C(F)F)nn(C)c1F` [Example 80], the logP in series [1] (setting [2]) is 3.81. In addition, in the series with Pyrenophora teres, the Efficacy is 100%.

For `Cn1nc(C(F)F)c(C(=O)NCc2ccccc2C(F)(F)F)c1F` [Example 81], the logP in series [1] (setting [2]) worked out at 2.76. Also, the Efficacy in the series on Alternaria solani turned out to be 90%.

With `Cn1nc(C(F)F)c(C(=O)NCc2ccccc2C(F)(F)F)c1Cl` [Example 83], in series [1] (setting [2]), the logP came out at 2.96. Moreover, the Efficacy in the series on Alternaria solani is reported as 90%.

In series [1] (setting [2]), `Cn1nc(C(F)F)c(C(=O)N(Cc2cc(Cl)ccc2C(F)(F)F)C2CSC2)c1F` [Example 87] gave a logP of 3.92. In addition, the Efficacy with Pyrenophora teres is on record as 95%.

In series [1] (setting [2]), `Cn1nc(C(F)F)c(C(=O)N(CC#N)Cc2c(Cl)cccc2C(F)(F)F)c1F` [Example 88] gave a logP of 2.68. In the series on Alternaria solani, this compound displayed an Efficacy of 80%.

With `CC(C)N(Cc1c(Cl)cccc1C(F)(F)F)C(=O)c1c(C(F)F)nn(C)c1F` [Example 92], in series [1] (setting [2]), the logP was 3.61. In addition, the Efficacy in the series on Pyrenophora teres came to 70%.

Regarding `C#CCN(Cc1c(Cl)cccc1C(F)(F)F)C(=O)c1c(C(F)F)nn(C)c1F` [Example 93], the logP in series [1] (setting [2]) is reported as 3.05. In addition, the Efficacy in the series with Pyrenophora teres is 95%.

Take `C=CCN(Cc1c(Cl)cccc1C(F)(F)F)C(=O)c1c(C(F)F)nn(C)c1F` [Example 94]: in series [1] (setting [2]), the logP came out at 3.37. The Efficacy with Pyrenophora teres was found to be 80%.

As to `CN(Cc1ccccc1Br)C(=O)c1c(C(F)F)nn(C)c1Cl` [Example 104], the logP in series [1] (setting [2]) was 2.90. Moreover, in the series on Pyrenophora teres, the Efficacy is 78%.

In series [1] (setting [3]), `Cn1nc(C(F)F)c(C(=O)NCc2ccc(Cl)cc2)c1F` [Example 127] registered a logP of 2.55. In the series with Alternaria solani, this compound had an Efficacy of 90%.

`CC(NC(=O)c1c(C(F)F)nn(C)c1F)c1ccc(C2CCCCC2)cc1` (stereo not drawn) [Example 129]: the logP in series [1] (setting [3]) amounted to 4.34. Moreover, the Efficacy with Pyrenophora teres came out at 100%.

In the case of `CCOc1ccc(C2(NC(=O)c3c(C(F)F)nn(C)c3F)CCCC2)cc1` [Example 131], the logP in series [1] (setting [3]) stood at 3.44. Besides, in the series on Pyrenophora teres, the Efficacy turned out to be 94%.

In series [1] (setting [3]), `COc1ccc(C2(NC(=O)c3c(C(F)F)nn(C)c3F)CCCC2)cc1` [Example 133] yielded a logP of 3.06. Besides, the Efficacy with Pyrenophora teres was 95%.

Compound `Cn1nc(C(F)F)c(C(=O)NC2CCc3ccccc32)c1Cl` (stereo not drawn) [Example 137] came in with a logP in series [1] (setting [3]) of 2.73. In the series with Alternaria solani, this compound yielded an Efficacy of 89%.

Regarding `Cn1nc(C(F)F)c(C(=O)NC2CCc3ccccc32)c1F` (stereo not drawn) [Example 138], in series [1] (setting [3]), the logP is 2.57. The compound also gave an Efficacy in the series on Alternaria solani of 94%.

Consider `Cn1nc(C(F)F)c(C(=O)NCc2ccccc2Oc2ccccc2)c1F` [Example 144], for which, in series [1] (setting [3]), the logP amounted to 3.25. The same compound showed an Efficacy with Alternaria solani of 89%.

On to `Cn1nc(C(F)F)c(C(=O)NCc2cccc(Oc3ccccc3)c2)c1F` [Example 145], for which, in series [1] (setting [3]), the logP was determined as 3.23. Besides, the Efficacy in the series with Alternaria solani stood at 90%.

Regarding `Cn1nc(C(F)F)c(C(=O)N(Cc2cccc(Oc3ccccc3)c2)C2COC2)c1Cl` [Example 147], in series [1] (setting [3]), the logP is 3.19. In the series with Alternaria solani, this compound had an Efficacy of 70%.

On to `CN(Cc1cccc(Oc2ccccc2)c1)C(=O)c1c(C(F)F)nn(C)c1Cl` [Example 149], for which, in series [1] (setting [3]), the logP came to 3.46. The Efficacy with Pyrenophora teres is reported as 70%.

In series [1] (setting [3]), `CN(Cc1ccc(Oc2ccc(Cl)cc2)cc1)C(=O)c1c(C(F)F)nn(C)c1Cl` [Example 157] registered a logP of 3.96. The compound also yielded an Efficacy in the series on Pyrenophora teres of 90%.

Compound `CN(Cc1cc(Cl)ccn1)C(=O)c1c(C(F)F)nn(C)c1F` [Example 174] came in with a logP in series [1] (setting [3]) of 1.84. Moreover, the Efficacy in the series on Pyrenophora teres amounted to 75%.

As for `Cn1nc(C(F)F)c(C(=O)NCc2ncc(C(F)(F)F)cc2Cl)c1F` [Example 176], the logP in series [1] (setting [3]) worked out at 2.76. The Efficacy with Alternaria solani is reported as 70%.

`CON(Cc1ncc(Cl)cc1Cl)C(=O)c1c(C(F)F)nn(C)c1Cl` [Example 182] registered a logP in series [1] (setting [3]) of 2.88. This compound showed an Efficacy in the series on Pyrenophora teres of 95%.

As for `CC(c1ncc(Cl)cc1Cl)N(C(=O)c1c(C(F)F)nn(C)c1Cl)C1CCCC1` (stereo not drawn) [Example 188], in series [1] (setting [3]), the logP is 4.67. Besides, in the series with Pyrenophora teres, the Efficacy is given as 95%.
